Molecules are shown by their SMILES. The source made the active and inactive calls. The rule behind the calls is not given here.

We go through 9 molecules from PubChem BioAssay AID1259411 (Chemical Carcinogenesis Research Information System (CCRIS), 2018).

For the data set, the system named is rodent carcinogenicity bioassays, tumor incidence. Description: CCRIS carcinogenicity studies. Put shortly:
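NCI-built, expert-reviewed records of carcinogenicity and related test outcomes (mutagenicity, tumor promotion/inhibition) compiled from published and report sources, historical span 1985-2011, not updated.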

In the case of `NC(=O)N(CCCO)N=O`, the carcinogen call (Species: RAT, Strain/Sex: F344/FEMALE, Route: GAVAGE, Dose: 0, 8 MG/ML (TOTAL DOSE 0; 0.9 MMOL) IN 2 ML ETHYL ACETATE AND CORN OIL (1:2) 2/WK FOR 40 WK (STUDY DURATION: LIFETIME), Dose: 0, 8 MG/ML (TOTAL DOSE 0; 0.9 MMOL) IN 2 ML ETHYL ACETATE AND CORN OIL (1:2) 2/WK FOR 40 WK (STUDY DURATION: LIFETIME), Tumor Site: Type of Lesion: THYROID: C-CELL TUMOR) was “active; positive”; the carcinogen call (Species: RAT, Strain/Sex: F344/FEMALE, Route: GAVAGE, Dose: 0, 8 MG/ML IN 0.2 ML ETHYL ACETATE AND CORN OIL 2/WK FOR 40 WK (STUDY DURATION: LIFESPAN), Tumor Site: Type of Lesion: THYROID: C-CELL TUMOR, UTERUS: TUMOR) is “active; positive”; the carcinogen call (Species: RAT, Strain/Sex: F344/FEMALE, Route: GAVAGE, Dose: 0, 16 MG/ML (TOTAL DOSE 0; 1.3 MMOL) IN 2 ML ETHYL ACETATE AND CORN OIL (1:2) 2/WK FOR 30 WK (STUDY DURATION: LIFETIME), Dose: 0, 16 MG/ML (TOTAL DOSE 0; 1.3 MMOL) IN 2 ML ETHYL ACETATE AND CORN OIL (1:2) 2/WK FOR 30 WK (STUDY DURATION: LIFETIME)) is “inactive; negative”; the carcinogen call (Species: RAT, Strain/Sex: F344/FEMALE, Route: GAVAGE, Dose: 0, 16 MG/ML IN 0.2 ML ETHYL ACETATE AND CORN OIL 2/WK FOR 30 WK (STUDY DURATION: LIFESPAN), Tumor Site: Type of Lesion: LIVER: TUMOR, FORESTOMACH: TUMOR, THYROID: C-CELL TUMOR, UTERUS: TUMOR, DUODENUM: TUMOR, Tumor Site: Type of Lesion: LIVER: TUMOR, FORESTOMACH: TUMOR, THYROID: C-CELL TUMOR, UTERUS: TUMOR, DUODENUM: TUMOR) was “active; positive”; the carcinogen call (Species: RAT, Strain/Sex: F344/MALE, Route: GAVAGE, Dose: 0, 8 MG/ML (TOTAL DOSE 0; 0.9 MMOL) IN 2 ML ETHYL ACETATE AND CORN OIL (1:2) 2/WK FOR 40 WK (STUDY DURATION: LIFETIME), Dose: 0, 8 MG/ML (TOTAL DOSE 0; 0.9 MMOL) IN 2 ML ETHYL ACETATE AND CORN OIL (1:2) 2/WK FOR 40 WK (STUDY DURATION: LIFETIME)) is “inactive; negative”; the carcinogen call (Species: RAT, Strain/Sex: F344/MALE, Route: GAVAGE, Dose: 0, 8 MG/ML IN 0.2 ML ETHYL ACETATE AND CORN OIL 2/WK FOR 40 WK (STUDY DURATION: LIFESPAN), Tumor Site: Type of Lesion: FORESTOMACH: TUMOR) was “active; positive”. In addition, the carcinogen call (Species: RAT, Strain/Sex: F344/MALE, Route: GAVAGE, Dose: 0, 16 MG/ML (TOTAL DOSE 0; 1.3 MMOL) IN 2 ML ETHYL ACETATE AND CORN OIL (1:2) 2/WK FOR 30 WK (STUDY DURATION: LIFETIME), Dose: 0, 16 MG/ML (TOTAL DOSE 0; 1.3 MMOL) IN 2 ML ETHYL ACETATE AND CORN OIL (1:2) 2/WK FOR 30 WK (STUDY DURATION: LIFETIME)) was “inactive; negative” and the carcinogen call (Species: RAT, Strain/Sex: F344/MALE, Route: GAVAGE, Dose: 0, 16 MG/ML IN 0.2 ML ETHYL ACETATE AND CORN OIL 2/WK FOR 30 WK (STUDY DURATION: LIFESPAN), Tumor Site: Type of Lesion: LUNG: TUMOR, GLANDULAR STOMACH: TUMOR, SKIN: TUMOR, Tumor Site: Type of Lesion: LUNG: TUMOR, GLANDULAR STOMACH: TUMOR, SKIN: TUMOR) was “active; positive”.
For the molecule `NS(=O)(=O)c1cc(C(=O)O)c(NCc2ccco2)cc1Cl`, the carcinogen call (Species: MOUSE, Strain/Sex: B6C3F1/FEMALE, Route: ORAL, Dose: 0, 700, 1400 PPM IN FEED FOR 104 WK (STUDY DURATION: 107 WK), Dose: 0, 700, 1400 PPM IN FEED FOR 104 WK (STUDY DURATION: 107 WK), Tumor Site: Type of Lesion: MAMMARY GLAND: MIXED TUMOR, MALIGNANT, MAMMARY GLAND: MIXED TUMOR, MALIGNANT OR ACINAR CELL CARCINOMA) is “active; positive”; the carcinogen call (Species: MOUSE, Strain/Sex: B6C3F1/MALE, Route: ORAL, Dose: 0, 700, 1400 PPM IN FEED FOR 104 WK (STUDY DURATION: 107 WK), Dose: 0, 700, 1400 PPM IN FEED FOR 104 WK (STUDY DURATION: 107 WK)) is “inactive; negative”; the carcinogen call (Species: RAT, Strain/Sex: F344/FEMALE, Route: ORAL, Dose: 0, 350, 700 PPM IN FEED FOR 103 WK (STUDY DURATION: 106 WK), Dose: 0, 350, 700 PPM IN FEED FOR 103 WK (STUDY DURATION: 106 WK)) is “inactive; negative”; the carcinogen call (Species: RAT, Strain/Sex: F344/MALE, Route: ORAL, Dose: 0, 350, 700 PPM IN FEED FOR 103 WK (STUDY DURATION: 106 WK), Dose: 0, 350, 700 PPM IN FEED FOR 103 WK (STUDY DURATION: 106 WK), Tumor Site: Type of Lesion: KIDNEY: RENAL TUBULE CELL ADENOMA OR ADENOCARCINOMA, BRAIN: MENINGIOMA) is “equivocal”.
As for `CCC(CC)[N+](=O)[O-]`, the carcinogen call (Species: RAT, Strain/Sex: F344/MALE, Route: GAVAGE, Dose: 0, 2 MMOL/KG BW 1/WK FOR 12 WK THEN 1 MMOL/KG FOR 38 WK (STUDY DURATION: 83 WK), Tumor Site: Type of Lesion: LIVER: CARCINOMA) is “active; positive”.
As for `CCN(CC)C(=O)N(CC)N=O`, where the note is “Species: HAMSTER, Strain/Sex: SYRIAN/MALE, Route: GAVAGE, Dose: 0, 45 MG/ML (0.2 ML OF A SOLUTION IN 50% ETHANOL) 1/WK FOR 25 WK (STUDY DURATION: LIFE SPAN), Tumor Site: Type of Lesion: SPLEEN: HEMANGIOSARCOMA, FORESTOMACH: SQUAMOUS CELL CARCINOMA OR PAPILLOMA”, the carcinogen call was “active; positive”.
In the case of `CC(=NC#N)N(C)Cc1ccc(Cl)nc1`, the carcinogen call by setting is: (Species: Mouse, Strain/Sex: Crl:CD-1 (ICR)BR/Female, Route: Oral, Dose: 0, 130, 400, 1200 ppm (0; 25; 76; 215 mg/kg/day) in feed for 18 mo, Dose: 0, 130, 400, 1200 ppm (0; 25; 76; 215 mg/kg/day) in feed for 18 mo) “inactive; negative”; (Species: Mouse, Strain/Sex: Crl:CD-1 (ICR)BR/Male, Route: Oral, Dose: 0, 130, 400, 1200 ppm (0; 20; 66; 186 mg/kg/day) in feed for 18 mo, Dose: 0, 130, 400, 1200 ppm (0; 20; 66; 186 mg/kg/day) in feed for 18 mo) “inactive; negative”; (Species: Rat, Strain/Sex: Crl:CD BR/Female, Route: Oral, Dose: 0, 160, 400, 1000 ppm (0; 8.8; 22.6; 60.0 mg/kg/day) in feed for 2 yr, Dose: 0, 160, 400, 1000 ppm (0; 8.8; 22.6; 60.0 mg/kg/day) in feed for 2 yr) “inactive; negative”; (Species: Rat, Strain/Sex: Crl:CD BR/Male, Route: Oral, Dose: 0, 160, 400, 1000 ppm (0; 7.1; 17.5; 46.4 mg/kg/day) in feed for 2 yr, Dose: 0, 160, 400, 1000 ppm (0; 7.1; 17.5; 46.4 mg/kg/day) in feed for 2 yr) “inactive; negative”.
`COc1c(Cl)c(Cl)c([N+](=O)[O-])c(Cl)c1Cl`: the carcinogen call runs as follows: (Species: MOUSE, Strain/Sex: B6C3F1/FEMALE, Route: ORAL, Dose: 0, 0.006, 0.012% OF DIET, Dose: 0, 0.006, 0.012% OF DIET) “inactive; negative”; (Species: MOUSE, Strain/Sex: B6C3F1/MALE, Route: ORAL, Dose: 0, 0.006, 0.012% OF DIET, Dose: 0, 0.006, 0.012% OF DIET) “inactive; negative”; (Species: RAT, Strain/Sex: F344/FEMALE, Route: ORAL, Dose: 0, 0.006, 0.012% OF DIET, Dose: 0, 0.006, 0.012% OF DIET) “inactive; negative”; (Species: RAT, Strain/Sex: F344/MALE, Route: ORAL, Dose: 0, 0.006, 0.012% OF DIET, Dose: 0, 0.006, 0.012% OF DIET) “inactive; negative”.
For `O=C(c1ccccc1)C(O)c1ccccc1` (centres undefined), the carcinogen call (Species: MOUSE, Strain/Sex: B6C3F1/FEMALE, Route: ORAL, Dose: 0, 2500, 5000 PPM IN DIET, Dose: 0, 2500, 5000 PPM IN DIET) is “inactive; negative”; the carcinogen call (Species: MOUSE, Strain/Sex: B6C3F1/MALE, Route: ORAL, Dose: 0, 2500, 5000 PPM IN DIET, Dose: 0, 2500, 5000 PPM IN DIET) is “inactive; negative”; the carcinogen call (Species: RAT, Strain/Sex: F344/FEMALE, Route: ORAL, Dose: 0, 250, 500 PPM IN DIET, Dose: 0, 250, 500 PPM IN DIET) was “inactive; negative”; the carcinogen call (Species: RAT, Strain/Sex: F344/MALE, Route: ORAL, Dose: 0, 125, 250 PPM IN DIET, Dose: 0, 125, 250 PPM IN DIET) is “inactive; negative”.
As for `CCC(C)Br` (centres undefined), the carcinogen call (Species: MOUSE, Route: INTRAPERITONEAL, Tumor Site: Type of Lesion: LUNG) was “active; positive”.
Take `Nc1ccccc1N`: the carcinogen call is “active; positive” (Species: MOUSE, Route: ORAL, Tumor Site: Type of Lesion: LIVER) and “active; positive” (Species: RAT, Route: ORAL, Tumor Site: Type of Lesion: LIVER).
